Experimental data published in PubChem BioAssay AID248 (DTP/NCI, 2004).
Values joined by “and” are separate entries in the source; they are usually repeats but may differ in a detail not shown here. Identical values can stand only once. Toxic doses and inconclusive results are not listed. Square brackets hold non-standard residues; d marks the D form. Peptide text beside a SMILES is read from it. ξ: configuration not given here. ξN = NC(=O)CC(N)C(=O)O

Tested on: L1210 leukemia ip in BDF1 mice, survival T/C
Assay: NCI In Vivo Anticancer Drug Screen. Data for tumor model L1210 Leukemia (intraperitoneal) in B6D2F1 (BDF1) mice
Conditions: endpoint: mean survival time, higher = longer survival
Outline: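 Survival endpoint. Drug-treated group vs vehicle group, expressed as T divided by C. Tumor passaged by transplantation.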

[1] = dose: 100.0 mg/kg/injection, schedule: Q01DX001 (ip), vehicle: saline
[2] = dose: 200.0 mg/kg/injection, schedule: Q01DX001 (ip), vehicle: saline
[3] = dose: 400.0 mg/kg/injection, schedule: Q01DX001 (ip), vehicle: saline
[4] = dose: 100.0 mg/kg/injection, schedule: Q04DX003 (ip), vehicle: saline with Tween-80
[5] = dose: 200.0 mg/kg/injection, schedule: Q04DX003 (ip), vehicle: saline with Tween-80
[6] = dose: 400.0 mg/kg/injection, schedule: Q04DX003 (ip), vehicle: saline with Tween-80
[7] = dose: 100.0 mg/kg/injection, schedule: Q01DX009 (ip), vehicle: saline with Tween-80
[8] = dose: 200.0 mg/kg/injection, schedule: Q01DX009 (ip), vehicle: saline with Tween-80

CC(=O)CC(C)=NCCN=C(C)CC(C)=O.[Ni]
T/C (dose: 1.56 mg/kg/injection, schedule: Q01DX009 (ip), vehicle: gum acacia): 103 % of control | T/C (dose: 3.12 mg/kg/injection, schedule: Q01DX009 (ip), vehicle: gum acacia): 104 % of control | T/C (dose: 6.25 mg/kg/injection, schedule: Q01DX009 (ip), vehicle: gum acacia): 100 % of control | T/C (dose: 12.5 mg/kg/injection, schedule: Q01DX009 (ip), vehicle: gum acacia): 99 % of control | T/C (dose: 12.5 mg/kg/injection, schedule: Q04DX003 (ip), vehicle: gum acacia): 117 % of control | T/C (dose: 25.0 mg/kg/injection, schedule: Q04DX003 (ip), vehicle: gum acacia): 118 % of control | T/C (dose: 50.0 mg/kg/injection, schedule: Q04DX003 (ip), vehicle: gum acacia): 103 % of control

O=S(=O)(O)C(O)c1ccccc1O (stereo unspecified)
T/C [1]: 100 % of control | T/C [2]: 103 % of control | T/C [3]: 102 % of control

c1cc[c]([Sn]([c]2ccccc2)([c]2ccccc2)[n]2ccnc2)cc1
T/C (dose: 5.0 mg/kg/injection, schedule: Q01DX001 (ip), vehicle: other): 95 % of control | T/C (dose: 10.0 mg/kg/injection, schedule: Q01DX001 (ip), vehicle: other): 108 % of control

NC(CS)=NCC12CC3CC(CC(C3)C1)C2
T/C (dose: 12.5 mg/kg/injection, schedule: Q04DX003 (ip), vehicle: carboxymethylcellulose (CMC)): 93 % of control | T/C (dose: 25.0 mg/kg/injection, schedule: Q04DX003 (ip), vehicle: carboxymethylcellulose (CMC)): 98 % of control

COc1ccccc1CC(=O)O
T/C [1]: 100 % of control | T/C [4]: 101 % of control | T/C [2]: 103 % of control | T/C [5]: 105 % of control | T/C [3]: 108 % of control | T/C [6]: 101 % of control

CCOC(=O)N/N=C(/C)c1ccc(C)cc1
T/C (dose: 50.0 mg/kg/injection, schedule: Q01DX009 (ip), vehicle: saline with Tween-80): 95 % of control and 121 % of control | T/C (dose: 100.0 mg/kg/injection, schedule: Q01DX001 (ip), vehicle: saline with Tween-80): 103 % of control | T/C [7]: 105 % of control and 89 % of control | T/C (dose: 100.0 mg/kg/injection, schedule: Q04DX002 (ip), vehicle: saline with Tween-80): 95 % of control and 104 % of control | T/C [4]: 97 % of control | T/C (dose: 200.0 mg/kg/injection, schedule: Q01DX001 (ip), vehicle: saline with Tween-80): 101 % of control | T/C [8]: 101 % of control and 110 % of control | T/C (dose: 200.0 mg/kg/injection, schedule: Q04DX002 (ip), vehicle: saline with Tween-80): 101 % of control and 110 % of control | T/C [5]: 97 % of control | T/C (dose: 400.0 mg/kg/injection, schedule: Q01DX001 (ip), vehicle: saline with Tween-80): 102 % of control | T/C [6]: 110 % of control

NCC(=O)NC(CC(N)=O)C(=O)O (stereo unspecified) (H-Gly-[ξN]-OH)
T/C (dose: 100.0 mg/kg/injection, schedule: Q01DX009 (ip), vehicle: saline): 97 % of control | T/C (dose: 200.0 mg/kg/injection, schedule: Q01DX009 (ip), vehicle: saline): 102 % of control | T/C (dose: 400.0 mg/kg/injection, schedule: Q01DX009 (ip), vehicle: saline): 97 % of control

O=C(Nc1ccccc1)Nc1ccc(F)cc1
T/C [7]: 100 % of control | T/C [4]: 101 % of control | T/C [8]: 94 % of control | T/C [5]: 99 % of control | T/C (dose: 400.0 mg/kg/injection, schedule: Q01DX009 (ip), vehicle: saline with Tween-80): 96 % of control | T/C [6]: 105 % of control

COc1ccc(C(C)=O)cc1OC
T/C (dose: 100.0 mg/kg/injection, schedule: Q01DX009 (ip), vehicle: saline sonified): 92 % of control | T/C (dose: 200.0 mg/kg/injection, schedule: Q01DX009 (ip), vehicle: saline sonified): 88 % of control | T/C (dose: 400.0 mg/kg/injection, schedule: Q01DX009 (ip), vehicle: saline sonified): 100 % of control

Cc1cc(P(=O)(O)O)ccc1Cl
T/C (dose: 100.0 mg/kg/injection, schedule: Q01DX009 (ip), vehicle: acetone): 87 % of control | T/C (dose: 200.0 mg/kg/injection, schedule: Q01DX009 (ip), vehicle: acetone): 90 % of control

CC(=C(C#N)C#N)c1ccccc1
T/C (dose: 12.5 mg/kg/injection, schedule: Q04DX003 (ip), vehicle: saline with Tween-80): 95 % of control | T/C (dose: 25.0 mg/kg/injection, schedule: Q04DX003 (ip), vehicle: saline with Tween-80): 94 % of control | T/C (dose: 50.0 mg/kg/injection, schedule: Q04DX003 (ip), vehicle: saline with Tween-80): 89 % of control

O=Nc1ccc(-[n+]2ccccc2)c([N+](=O)[O-])c1
T/C (dose: 75.0 mg/kg/injection, schedule: Q01DX001 (ip), vehicle: saline): 98 % of control

COc1nc2ccccc2n1C1OC(CO)C(O)C1O (stereo unspecified)
T/C [1]: 97 % of control | T/C [2]: 100 % of control | T/C [3]: 105 % of control

CC(C)/C(=C\c1ccccc1)C(=O)c1ccccc1
T/C [4]: 104 % of control | T/C [5]: 110 % of control

O=C1C=CC(=O)c2cc(Cl)c(Cl)cc21
T/C (dose: 3.12 mg/kg/injection, schedule: Q01DX009 (ip), vehicle: saline): 89 % of control | T/C (dose: 6.25 mg/kg/injection, schedule: Q01DX009 (ip), vehicle: saline): 90 % of control | T/C (dose: 6.25 mg/kg/injection, schedule: Q04DX003 (ip), vehicle: saline): 96 % of control | T/C (dose: 12.5 mg/kg/injection, schedule: Q01DX001 (ip), vehicle: saline): 98 % of control | T/C (dose: 12.5 mg/kg/injection, schedule: Q04DX003 (ip), vehicle: saline): 98 % of control | T/C (dose: 25.0 mg/kg/injection, schedule: Q01DX001 (ip), vehicle: saline): 90 % of control

CC(C)(C)CC(C)(C)c1ccc(OCCOc2ccc(C(N)=O)cc2[N+](=O)[O-])cc1
T/C (dose: 100.0 mg/kg/injection, schedule: Q04DX003 (ip), vehicle: saline): 94 % of control | T/C (dose: 200.0 mg/kg/injection, schedule: Q04DX003 (ip), vehicle: saline): 105 % of control | T/C (dose: 400.0 mg/kg/injection, schedule: Q04DX003 (ip), vehicle: saline): 97 % of control

CN(C)C(=O)c1ccc(NCc2cnc3nc(N)nc(N)c3n2)cc1
T/C (dose: 20.0 mg/kg/injection, schedule: Q01DX009 (ip), vehicle: Klucel (hydroxypropylcellulose) (HPC)): 97 % of control | T/C (dose: 40.0 mg/kg/injection, schedule: Q01DX009 (ip), vehicle: Klucel (hydroxypropylcellulose) (HPC)): 96 % of control | T/C (dose: 80.0 mg/kg/injection, schedule: Q01DX009 (ip), vehicle: Klucel (hydroxypropylcellulose) (HPC)): 97 % of control

CCCCCCCCC(=O)N(CC)CC
T/C (dose: 100.0 mg/kg/injection, schedule: Q04DX002 (ip), vehicle: saline): 111 % of control | T/C (dose: 200.0 mg/kg/injection, schedule: Q04DX002 (ip), vehicle: saline): 103 % of control | T/C (dose: 400.0 mg/kg/injection, schedule: Q04DX002 (ip), vehicle: saline): 96 % of control

O=C(Nc1ccc(C2=NCCN2)cc1)c1cccc(C(=O)Nc2ccc(C3=NCCN3)cc2)c1Cl
T/C (dose: 4.5 mg/kg/injection, schedule: Q01DX Z (ip), vehicle: carboxymethylcellulose (CMC)): 105 % of control | T/C (dose: 9.0 mg/kg/injection, schedule: Q01DX Z (ip), vehicle: carboxymethylcellulose (CMC)): 117 % of control | T/C (dose: 18.0 mg/kg/injection, schedule: Q01DX Z (ip), vehicle: carboxymethylcellulose (CMC)): 155 % of control | T/C (dose: 25.0 mg/kg/injection, schedule: Q01DX Z (ip), vehicle: carboxymethylcellulose (CMC)): 211 % of control | T/C (dose: 37.0 mg/kg/injection, schedule: Q01DX Z (ip), vehicle: carboxymethylcellulose (CMC)): 184 % of control | T/C (dose: 62.0 mg/kg/injection, schedule: Q01DX Z (oral), vehicle: carboxymethylcellulose (CMC)): 109 % of control | T/C (dose: 125.0 mg/kg/injection, schedule: Q01DX Z (oral), vehicle: carboxymethylcellulose (CMC)): 118 % of control | T/C (dose: 250.0 mg/kg/injection, schedule: Q01DX Z (oral), vehicle: carboxymethylcellulose (CMC)): 118 % of control | T/C (dose: 500.0 mg/kg/injection, schedule: Q01DX Z (oral), vehicle: carboxymethylcellulose (CMC)): 98 % of control

CCOC(=O)NCC(C)(CCN1CCCC1)c1cccc2ccccc12 (stereo unspecified)
T/C (dose: 12.5 mg/kg/injection, schedule: Q01DX009 (ip), vehicle: saline with Tween-80): 93 % of control | T/C (dose: 12.5 mg/kg/injection, schedule: Q04DX003 (ip), vehicle: Klucel (hydroxypropylcellulose) (HPC)): 100 % of control | T/C (dose: 25.0 mg/kg/injection, schedule: Q01DX009 (ip), vehicle: saline with Tween-80): 88 % of control | T/C (dose: 25.0 mg/kg/injection, schedule: Q04DX003 (ip), vehicle: Klucel (hydroxypropylcellulose) (HPC)): 100 % of control | T/C (dose: 50.0 mg/kg/injection, schedule: Q04DX003 (ip), vehicle: Klucel (hydroxypropylcellulose) (HPC)): 100 % of control

COc1ccc(OC(=S)N(C)C)cc1
T/C [4]: 94 % of control | T/C [5]: 88 % of control | T/C [6]: 102 % of control
